What is called melting point is the temperature, or range, at which the solid turns liquid.

The structures appear in SMILES notation.

The subject of series [1] is papillary muscle of the guineapig. Put plainly: Action potential duration on the papillary muscle of the guineapig. As to conditions: test substance 2.2×10^−5 mol per liter, 30 minutes after the addition, repolarization degree of 95%; for APD95-HOE 234: action potential shortened by 1 μM potassium channel opener Hoe 234 (rilmakalim); for APD95-DEO: action potential shortened by 2-deoxyglucose (DEO). The series is classed as cell-based. An excerpt:
(1) Action potential duration on the papillary muscle of the guineapig:
ATP deficiency states such as are observed during ischemia in the cardiac muscle cell lead to a shortening of the duration of action potential. They are one of the causes of so-called reentry arrhythmias, which can cause sudden cardiac death. Opening of ATP-sensitive K channels by the reduction in ATP is a cause of this.
A standard microelectrode technique is used for measurement of the action potential. For this, guineapigs of both sexes are sacrificed by a blow to the head, the hearts are removed and the papillary muscles are separated out and suspended in an organ bath. The organ bath is flushed with Ringer solution (0.9% NaCl, 0.048% KCl, 0.024% CaCl2, 0.02% NaHCO3 and 0.1% glucose) and gassed with a mixture of 95% oxygen and 5% carbon dioxide at a temperature of 36° C. The muscle is stimulated via an electrode with rectangular pulses of 1 V and 1 ms duration and a frequency of 2 Hz. The action potential is conducted and recorded through a glass microelectrode, which is punctured intracellularly and filled with 3 mol KCl solution. The substances to be tested were added to the Ringer solution in a concentration of 2.2×10^−5 mol per liter. The action potential is shown in amplified form on an oscilloscope using a Hugo Sachs amplifier. The duration of the action potential is determined at a repolarization degree of 95% (APD95). Shortenings in action potential are caused either by addition of a 1 μM strength solution of the potassium channel opener Hoe 234 (rilmakalim) [W. Linz, E. Klaus, U. Albus, R. H. A. Becker, D. Mania, H. C. Englert, B. A. Schölkens Arzneimittelforechung/Drug Research, Volume 42 (II), 1992, pages 1180-1185] or by addition of 2-deoxyglucose (DEO). ATP deficiency states are caused in experimental physiology by 2-deoxyglucose by blockade of glucose meta-bolism. The action potential-shortening effect of these substances was prevented or reduced by the simultaneous dose of the test substances. The test substances were added to the bath solution as stock solutions in propanediol. The values stated relate to measurements 30 minutes after the addition. The APD95 in the presence of DEO or HOE 234 and in the absence of the test substance serves an a control.

In another series the test system is RINm5F cells. The series is described as follows: Membrane potential on isolated β cells (RINm5F cells, whole cell patch clamp). The format is cell-based. As to conditions: compound 10^−5 mol per liter, diazoxide (100 μmol) in bath, 34±1° C. An excerpt: (2) Membrane potential on isolated β cells:
The action mechanism of hypoglycemic sulfonylureas is clarified in rough outlines. The β cells of the pancreas are the target organ, where increased secretion of the hypoglycemic hormone insulin occurs. The release of insulin is controlled by the cell membrane potential. Glibenclamide causes depolarization of the cell membrane, which promotes insulin release via an increased in-flow of calcium ions. The extent of this depolarization of the call membrane ΔU was determined on RINm5F cells, a pancreas tumor cell line, for some of the compounds according to the invention. The action strength of a compound in this model predicts the extent of the hypoglycemic potential of this compound.
RINm5F cells were cultured at 37° C. in RPMI 1640 culture medium (flow), to which […] of glucose, 10% (volume/volume) of fetal calf serum, 2 mmol of glutamine and 50 μg/ml of gentamycin were added. For the studies, the cells were isolated by incubation (about 3 minutes) in a Ca^2+-free medium containing 0.25% of trypsin and stored on ice.
Isolated RINm5F cells were introduced into a Plexi-glas chamber on an inverse microscope fitted with a differential interference contrast lens. A fire-polished micropipette with an opening diameter of about 1 μm was placed on the cell with the aid of a micromanipulator under optical control (400-fold magnification). By applying a slight reduced pressure in the patch pipette, a high electrical seal was first produced between the glass and cell membrane, and was then broken open by increasing the reduced pressure of the membrane spot under the measurement pipette. The cell potential was recorded in this whole cell configuration with the aid of a patch clamp amplifier (L/M EPC 7) and was measured by applying a potential ramp to the whole cell current.
Solutions: The patch pipette was filled with KCl solution (in mmol): 140 KCl, 10 NaCl, 1.1 MgCl2, 0.5 EGTA, 1 Mg-ATP, 10 HEPES, pH=7.2, and the bath contained NaCl solution (in mmol): 140 NaCl, 4.7 KCl, 1.1 MgCl2, 2 CaCl2, 10 HEPES, pH=7.4. […]
In general terms: In patch-clamp work, channel activity is measured electrically.

`CNC(=S)NS(=O)(=O)c1cc(CCNC(=O)c2cc(F)ccc2OC)ccc1OC` yielded a melting point of 182 to 185 °C.
Still for that read-out and setting: to `CCOc1ccc(CCNC(=O)c2cc(Cl)ccc2OC)cc1S(=O)(=O)NC(=O)NC` belongs 190 to 195 °C; to `CNC(=O)NS(=O)(=O)c1cc(CCNC(=O)c2cc(F)ccc2OC)ccc1OC`, 199 to 200 °C; to `CNC(=S)NS(=O)(=O)c1cc(CCNC(=O)c2cc(Cl)ccc2OC)ccc1C`, 183 °C.
`CNC(=O)NS(=O)(=O)c1cc(CCNC(=O)c2cc(Cl)ccc2OC)ccc1OC` [Example 1, 2-Methoxy-5-chloro-N-{5-[1-sulfonylamino-N-(methylaminocarbonyl)-2-methoxyphenyl]-ethyl}-benzamide]: in series [1], the “APD95-HOE 234” value was 138 ± 3 (160 ± 20) ms and the APD95-DEO is 107 ± 14 (155 ± 9) ms. Also, the “ΔU (depolarization of the cell membrane)” value in the series with RINm5F cells is 13 (−76) n = 6 mv.
The compound `CCc1ccc(CCNC(=O)c2cc(Cl)ccc2OC)cc1S(=O)(=O)NC(=S)NC` came in with a melting point of 155 °C.
The same measure, in the same setting: to `CNC(=O)NS(=O)(=O)c1cc(CCCNC(=O)c2cc(Cl)ccc2OC)ccc1OC` belongs 285 °C; to `CCc1ccc(CCNC(=O)c2cc(Cl)ccc2OC)cc1S(=O)(=O)NC(=O)NC`, 207 °C.
Consider `CNC(=O)NS(=O)(=O)c1cc(CCNC(=O)c2cc(Cl)ccc2OC)ccc1C` [Example 4, 2-Methoxy-5-chloro-N-{5-[1-sulfonylamino-N-(methylaminocarbonyl)-2-methylphenyl]-ethyl}-benzamide], for which, in series [1], the “APD95-HOE 234” value was 123 ± 15 (172 ± 18) ms and the APD95-DEO is reported as 110 ± 23 (180 ± 5) ms. Besides, the “ΔU (depolarization of the cell membrane)” value with RINm5F cells is on record as 19 (−76) n = 3 mv.
With `CNC(=S)NS(=O)(=O)c1cc(CCNC(=O)c2cc(Cl)ccc2OC)ccc1OC` [Example 10, 2-Methoxy-5-chloro-N-{5-[1-sulfonylamino-N-(methylaminothiocarbonyl)-2-methoxyphenyl]-ethyl}-benzamide], in series [1], the “APD95-HOE 234” value was 137 ± 20 (150 ± 23) ms and the APD95-DEO is given as 125 (175) ms. Moreover, the “ΔU (depolarization of the cell membrane)” value in the series on RINm5F cells is listed as 11 (−79) n = 3 mv.

The record behind these values is patent US6506937B2, “Substituted benzenesulfonylureas and -thioureas-processes for their preparation and their use as pharmaceuticals” (priority 1993, dated 2003).
